Laboratory results from ChEMBL document CHEMBL3991601, “The target landscape of clinical kinase drugs” (Science, 2017).
The source made the active and inactive calls. Cut-off read from the data, not from the text of the source, for most assays here: actives have a measured Kd and inactives only a lower limit.

Tests used:
Activin receptor type-1B = target: T1, Activin receptor type-1B (Homo sapiens, UniProt P36896)
T1 sequence (P36896 whole entry): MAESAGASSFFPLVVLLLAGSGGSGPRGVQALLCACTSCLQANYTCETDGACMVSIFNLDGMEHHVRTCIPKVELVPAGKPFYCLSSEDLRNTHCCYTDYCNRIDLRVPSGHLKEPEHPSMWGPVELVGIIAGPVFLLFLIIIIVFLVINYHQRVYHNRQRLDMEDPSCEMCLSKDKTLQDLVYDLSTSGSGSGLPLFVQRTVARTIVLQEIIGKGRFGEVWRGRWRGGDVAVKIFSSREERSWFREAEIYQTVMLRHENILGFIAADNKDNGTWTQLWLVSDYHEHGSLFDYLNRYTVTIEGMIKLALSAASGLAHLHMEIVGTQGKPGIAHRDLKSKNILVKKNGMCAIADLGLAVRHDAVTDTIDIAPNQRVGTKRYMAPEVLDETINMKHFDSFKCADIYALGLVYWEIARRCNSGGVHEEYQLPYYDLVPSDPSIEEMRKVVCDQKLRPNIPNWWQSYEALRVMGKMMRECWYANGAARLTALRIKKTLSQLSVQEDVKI

[1] = target: T2, Mitogen-activated protein kinase kinase kinase 5 (Homo sapiens, UniProt Q99683)
T2 sequence (Q99683 whole entry): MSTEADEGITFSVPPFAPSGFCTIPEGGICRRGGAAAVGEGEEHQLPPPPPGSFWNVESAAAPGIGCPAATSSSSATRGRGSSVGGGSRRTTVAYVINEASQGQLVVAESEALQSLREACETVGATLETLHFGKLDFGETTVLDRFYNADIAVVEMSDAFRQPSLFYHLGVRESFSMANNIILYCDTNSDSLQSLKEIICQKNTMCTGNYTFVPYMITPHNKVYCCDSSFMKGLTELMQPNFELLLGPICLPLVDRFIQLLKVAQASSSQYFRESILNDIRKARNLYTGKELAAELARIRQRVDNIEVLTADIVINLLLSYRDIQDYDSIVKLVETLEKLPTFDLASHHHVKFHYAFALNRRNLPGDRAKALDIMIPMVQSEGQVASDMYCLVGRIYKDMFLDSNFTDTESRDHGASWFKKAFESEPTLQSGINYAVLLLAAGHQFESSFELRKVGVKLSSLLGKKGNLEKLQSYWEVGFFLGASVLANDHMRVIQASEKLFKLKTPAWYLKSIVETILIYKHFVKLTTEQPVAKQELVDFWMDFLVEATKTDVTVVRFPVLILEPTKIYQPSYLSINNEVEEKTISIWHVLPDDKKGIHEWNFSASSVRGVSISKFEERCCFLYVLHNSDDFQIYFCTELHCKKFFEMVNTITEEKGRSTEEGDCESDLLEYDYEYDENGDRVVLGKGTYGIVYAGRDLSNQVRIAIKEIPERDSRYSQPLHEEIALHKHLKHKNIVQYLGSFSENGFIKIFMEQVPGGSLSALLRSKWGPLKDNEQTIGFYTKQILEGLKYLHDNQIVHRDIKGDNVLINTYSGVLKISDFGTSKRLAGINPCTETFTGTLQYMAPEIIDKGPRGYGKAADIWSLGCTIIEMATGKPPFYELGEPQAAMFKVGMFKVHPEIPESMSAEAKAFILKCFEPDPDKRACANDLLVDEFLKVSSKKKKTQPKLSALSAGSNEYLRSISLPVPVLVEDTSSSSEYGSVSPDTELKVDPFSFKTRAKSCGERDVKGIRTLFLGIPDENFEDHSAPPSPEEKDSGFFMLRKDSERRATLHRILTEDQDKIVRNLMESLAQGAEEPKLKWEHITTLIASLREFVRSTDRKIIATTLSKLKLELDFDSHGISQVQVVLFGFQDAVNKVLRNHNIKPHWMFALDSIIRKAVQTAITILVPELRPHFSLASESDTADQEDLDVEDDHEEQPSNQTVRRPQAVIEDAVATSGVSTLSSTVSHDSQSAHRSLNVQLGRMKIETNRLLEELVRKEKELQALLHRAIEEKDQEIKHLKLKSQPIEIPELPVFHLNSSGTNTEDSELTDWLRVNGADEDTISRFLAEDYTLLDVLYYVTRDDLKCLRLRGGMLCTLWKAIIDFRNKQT

[2] = target: Mitotic checkpoint serine/threonine-protein kinase BUB1 (Homo sapiens, UniProt O43683)
Mitotic checkpoint serine/threonine-protein kinase BUB1, sequence (O43683 whole entry): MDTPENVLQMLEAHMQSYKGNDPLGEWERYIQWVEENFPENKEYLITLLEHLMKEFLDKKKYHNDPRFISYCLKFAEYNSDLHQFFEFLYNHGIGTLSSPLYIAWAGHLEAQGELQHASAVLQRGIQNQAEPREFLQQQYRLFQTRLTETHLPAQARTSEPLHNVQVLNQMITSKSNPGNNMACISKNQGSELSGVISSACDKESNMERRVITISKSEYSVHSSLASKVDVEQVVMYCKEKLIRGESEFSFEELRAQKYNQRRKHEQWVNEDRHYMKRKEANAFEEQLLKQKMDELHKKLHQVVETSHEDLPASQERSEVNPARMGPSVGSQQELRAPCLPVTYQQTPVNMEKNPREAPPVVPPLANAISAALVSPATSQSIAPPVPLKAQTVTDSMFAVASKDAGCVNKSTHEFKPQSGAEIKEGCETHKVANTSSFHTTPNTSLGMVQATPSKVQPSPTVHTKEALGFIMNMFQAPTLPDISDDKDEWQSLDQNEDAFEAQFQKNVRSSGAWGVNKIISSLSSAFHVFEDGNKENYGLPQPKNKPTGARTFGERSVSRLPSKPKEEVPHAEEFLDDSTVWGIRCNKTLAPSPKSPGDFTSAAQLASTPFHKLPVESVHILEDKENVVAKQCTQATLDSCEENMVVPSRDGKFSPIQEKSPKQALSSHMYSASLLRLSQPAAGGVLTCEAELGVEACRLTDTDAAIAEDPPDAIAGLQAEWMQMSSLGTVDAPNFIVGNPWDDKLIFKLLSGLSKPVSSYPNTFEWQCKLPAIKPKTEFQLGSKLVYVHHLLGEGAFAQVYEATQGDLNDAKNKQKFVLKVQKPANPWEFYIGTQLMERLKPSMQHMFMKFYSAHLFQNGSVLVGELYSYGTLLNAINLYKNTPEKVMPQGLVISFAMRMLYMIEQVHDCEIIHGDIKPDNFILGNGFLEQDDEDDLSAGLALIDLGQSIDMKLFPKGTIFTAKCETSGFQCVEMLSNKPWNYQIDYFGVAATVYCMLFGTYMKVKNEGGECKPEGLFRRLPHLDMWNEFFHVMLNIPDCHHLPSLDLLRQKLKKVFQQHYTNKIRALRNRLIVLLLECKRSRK

[3] = target: Dual specificity mitogen-activated protein kinase kinase 2 (Homo sapiens, UniProt P36507)
Dual specificity mitogen-activated protein kinase kinase 2, sequence (P36507 whole entry): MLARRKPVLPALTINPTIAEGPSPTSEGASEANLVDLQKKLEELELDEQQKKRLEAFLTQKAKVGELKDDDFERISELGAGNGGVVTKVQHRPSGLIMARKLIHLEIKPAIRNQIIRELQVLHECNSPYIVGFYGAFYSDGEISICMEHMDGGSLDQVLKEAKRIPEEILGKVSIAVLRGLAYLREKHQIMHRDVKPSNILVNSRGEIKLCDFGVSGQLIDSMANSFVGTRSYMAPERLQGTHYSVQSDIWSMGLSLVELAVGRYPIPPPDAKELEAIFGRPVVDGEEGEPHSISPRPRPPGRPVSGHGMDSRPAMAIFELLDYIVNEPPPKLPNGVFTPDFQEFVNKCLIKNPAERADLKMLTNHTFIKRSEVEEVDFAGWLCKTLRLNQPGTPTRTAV

Focal adhesion kinase 1 = Focal adhesion kinase 1 (Homo sapiens, UniProt Q05397)
Focal adhesion kinase 1, sequence (Q05397 whole entry): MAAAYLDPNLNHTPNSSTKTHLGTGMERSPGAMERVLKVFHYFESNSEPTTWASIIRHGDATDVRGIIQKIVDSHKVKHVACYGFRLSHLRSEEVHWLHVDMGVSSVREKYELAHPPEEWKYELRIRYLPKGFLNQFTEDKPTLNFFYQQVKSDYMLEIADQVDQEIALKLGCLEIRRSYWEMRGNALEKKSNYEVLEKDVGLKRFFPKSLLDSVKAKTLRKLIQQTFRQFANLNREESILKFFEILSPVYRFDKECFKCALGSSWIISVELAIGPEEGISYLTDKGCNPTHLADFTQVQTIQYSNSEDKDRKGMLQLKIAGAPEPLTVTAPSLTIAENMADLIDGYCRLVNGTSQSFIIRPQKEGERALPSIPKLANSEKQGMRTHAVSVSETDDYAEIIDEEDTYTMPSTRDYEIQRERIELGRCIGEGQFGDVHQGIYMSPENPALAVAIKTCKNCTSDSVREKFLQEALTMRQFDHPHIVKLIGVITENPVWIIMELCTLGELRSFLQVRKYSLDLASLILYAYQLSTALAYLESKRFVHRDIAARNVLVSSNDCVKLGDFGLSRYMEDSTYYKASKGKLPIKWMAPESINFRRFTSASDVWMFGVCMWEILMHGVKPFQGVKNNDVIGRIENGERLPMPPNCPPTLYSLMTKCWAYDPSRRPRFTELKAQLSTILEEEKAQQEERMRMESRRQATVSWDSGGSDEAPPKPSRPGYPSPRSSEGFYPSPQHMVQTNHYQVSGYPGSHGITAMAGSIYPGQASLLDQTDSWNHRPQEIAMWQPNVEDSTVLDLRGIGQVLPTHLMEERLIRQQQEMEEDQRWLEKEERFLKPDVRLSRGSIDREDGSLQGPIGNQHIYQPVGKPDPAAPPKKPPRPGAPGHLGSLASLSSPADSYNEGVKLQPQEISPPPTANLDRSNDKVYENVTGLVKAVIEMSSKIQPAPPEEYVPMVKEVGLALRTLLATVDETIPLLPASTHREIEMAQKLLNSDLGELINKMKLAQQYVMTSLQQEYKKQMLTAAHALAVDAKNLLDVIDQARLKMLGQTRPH

[4] = target: U5 small nuclear ribonucleoprotein 200 kDa helicase (Homo sapiens, UniProt O75643)
U5 small nuclear ribonucleoprotein 200 kDa helicase, sequence (O75643 whole entry): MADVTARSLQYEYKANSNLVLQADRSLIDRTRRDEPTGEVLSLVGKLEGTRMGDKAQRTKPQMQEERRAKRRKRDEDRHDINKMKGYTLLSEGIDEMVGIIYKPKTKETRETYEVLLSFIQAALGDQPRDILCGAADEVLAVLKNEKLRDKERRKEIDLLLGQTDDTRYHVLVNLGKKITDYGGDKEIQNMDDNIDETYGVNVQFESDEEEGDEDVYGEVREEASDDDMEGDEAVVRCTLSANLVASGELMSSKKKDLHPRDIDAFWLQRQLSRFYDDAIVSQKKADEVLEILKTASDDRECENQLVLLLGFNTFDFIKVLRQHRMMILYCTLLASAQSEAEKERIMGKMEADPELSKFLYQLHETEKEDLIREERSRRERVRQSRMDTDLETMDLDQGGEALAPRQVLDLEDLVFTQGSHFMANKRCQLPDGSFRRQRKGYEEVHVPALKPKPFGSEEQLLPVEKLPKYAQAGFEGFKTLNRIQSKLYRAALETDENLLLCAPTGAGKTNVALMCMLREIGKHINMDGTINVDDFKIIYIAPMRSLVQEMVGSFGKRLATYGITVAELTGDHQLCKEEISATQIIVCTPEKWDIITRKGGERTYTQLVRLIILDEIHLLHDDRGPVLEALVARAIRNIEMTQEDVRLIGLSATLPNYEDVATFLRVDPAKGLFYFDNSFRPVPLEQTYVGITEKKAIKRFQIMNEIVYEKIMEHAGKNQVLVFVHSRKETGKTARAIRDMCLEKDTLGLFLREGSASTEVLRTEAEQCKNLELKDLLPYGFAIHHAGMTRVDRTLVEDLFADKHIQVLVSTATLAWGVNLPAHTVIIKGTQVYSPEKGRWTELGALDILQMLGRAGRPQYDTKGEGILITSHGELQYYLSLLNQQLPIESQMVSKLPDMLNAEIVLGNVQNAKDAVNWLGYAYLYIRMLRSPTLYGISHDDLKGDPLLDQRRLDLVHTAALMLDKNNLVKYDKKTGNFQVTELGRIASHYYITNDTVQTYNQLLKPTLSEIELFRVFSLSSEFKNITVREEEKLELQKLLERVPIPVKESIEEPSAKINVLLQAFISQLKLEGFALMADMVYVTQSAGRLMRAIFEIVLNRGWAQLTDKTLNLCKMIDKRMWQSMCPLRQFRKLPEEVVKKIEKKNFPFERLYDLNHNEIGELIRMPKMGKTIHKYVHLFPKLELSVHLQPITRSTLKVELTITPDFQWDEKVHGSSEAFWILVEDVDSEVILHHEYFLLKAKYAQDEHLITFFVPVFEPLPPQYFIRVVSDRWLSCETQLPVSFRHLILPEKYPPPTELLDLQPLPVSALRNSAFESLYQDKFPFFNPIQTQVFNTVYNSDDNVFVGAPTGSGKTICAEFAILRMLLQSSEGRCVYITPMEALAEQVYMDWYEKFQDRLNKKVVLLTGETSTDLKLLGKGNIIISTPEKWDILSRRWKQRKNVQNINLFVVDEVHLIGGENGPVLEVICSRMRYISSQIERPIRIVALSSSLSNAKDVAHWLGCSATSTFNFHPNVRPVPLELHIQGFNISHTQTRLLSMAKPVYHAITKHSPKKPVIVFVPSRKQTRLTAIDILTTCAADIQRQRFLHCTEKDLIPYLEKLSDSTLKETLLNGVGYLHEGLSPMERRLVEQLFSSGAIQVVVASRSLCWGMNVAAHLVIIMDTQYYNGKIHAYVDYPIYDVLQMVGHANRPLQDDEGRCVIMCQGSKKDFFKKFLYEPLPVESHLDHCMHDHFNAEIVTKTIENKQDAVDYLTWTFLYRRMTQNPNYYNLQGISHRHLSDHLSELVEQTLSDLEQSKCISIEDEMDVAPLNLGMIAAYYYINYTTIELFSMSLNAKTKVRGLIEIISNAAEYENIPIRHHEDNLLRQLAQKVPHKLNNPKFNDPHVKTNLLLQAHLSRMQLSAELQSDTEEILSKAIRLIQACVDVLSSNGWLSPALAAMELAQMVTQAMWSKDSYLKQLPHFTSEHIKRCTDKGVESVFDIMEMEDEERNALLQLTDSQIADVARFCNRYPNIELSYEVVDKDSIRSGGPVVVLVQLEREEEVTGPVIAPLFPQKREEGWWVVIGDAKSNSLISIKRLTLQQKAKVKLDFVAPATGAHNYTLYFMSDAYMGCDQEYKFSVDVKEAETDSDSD

[5] = target: Phosphatidylethanolamine-binding protein 1 (Homo sapiens, UniProt P30086)
Phosphatidylethanolamine-binding protein 1, sequence (P30086 whole entry): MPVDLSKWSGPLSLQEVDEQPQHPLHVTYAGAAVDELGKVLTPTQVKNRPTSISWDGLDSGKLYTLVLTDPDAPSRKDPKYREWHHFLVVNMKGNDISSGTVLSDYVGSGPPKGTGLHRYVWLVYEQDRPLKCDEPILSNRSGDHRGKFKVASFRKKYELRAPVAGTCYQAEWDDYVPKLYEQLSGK

[6] = target: Tyrosine-protein kinase Yes (Homo sapiens, UniProt P07947)
Note: in the data inactive means no Kd found up to 30 µM.

| SMILES | Kd (Activin receptor type-1B) | Kd [1] | Kd [2] | Kd [3] | Kd (Focal adhesion kinase 1) | Kd [4] | Kd [5] | Kd [6] |
| --- | --- | --- | --- | --- | --- | --- | --- | --- |
| O=C(Nc1cc(C(F)(F)F)cc(C(F)(F)F)c1)c1cc(Cl)ccc1O [IMD-0354] | > 30 µM (inactive) | > 30 µM (inactive) | > 30 µM (inactive) | > 30 µM (inactive) | > 30 µM (inactive) | > 30 µM (inactive) | > 30 µM (inactive) | > 30 µM (inactive) |
| CNC(=O)c1cccc2cc(Oc3ccnc4cc(OCC5(N)CC5)c(OC)cc34)ccc12 [LUCITANIB] | > 30 µM (inactive) | > 30 µM (inactive) | > 30 µM (inactive) | > 30 µM (inactive) | > 30 µM (inactive) | > 30 µM (inactive) | > 30 µM (inactive) | > 30 µM (inactive) |
| NC1(c2ccc(-c3nc4ccn5c(=O)[nH]nc5c4cc3-c3ccccc3)cc2)CCC1 [MK-2206] | > 30 µM (inactive) | > 30 µM (inactive) | > 30 µM (inactive) | > 30 µM (inactive) | > 30 µM (inactive) | > 30 µM (inactive) | > 30 µM (inactive) | > 30 µM (inactive) |
| CN(C[C@@H]1COCCO1)S(=O)(=O)Nc1ccc2ccc3ncc(-c4cnn(C)c4)cc3c(=O)c2c1 [MK-2461] | > 30 µM (inactive) | > 30 µM (inactive) | > 30 µM (inactive) | > 30 µM (inactive) | > 30 µM (inactive) | > 30 µM (inactive) | > 30 µM (inactive) | > 30 µM (inactive) |
| Cn1cc(-c2cnc3ccc4ccc(CS(=O)(=O)NCc5ccccn5)cc4c(=O)c3c2)cn1 [MK-8033] | > 30 µM (inactive) | > 30 µM (inactive) | > 30 µM (inactive) | > 30 µM (inactive) | > 30 µM (inactive) | > 30 µM (inactive) | > 30 µM (inactive) | > 30 µM (inactive) |
| FC(F)(F)c1ccc(/C=C/c2nc(COc3ccc(CCCCn4ccnn4)cc3)co2)cc1 [MUBRITINIB] | > 30 µM (inactive) | > 30 µM (inactive) | > 30 µM (inactive) | > 30 µM (inactive) | > 30 µM (inactive) | > 30 µM (inactive) | > 30 µM (inactive) | > 30 µM (inactive) |
| Cc1nc(Nc2n[nH]c3c2CN(C(=O)N[C@H](CN(C)C)c2ccccc2)C3(C)C)c2sccc2n1 [PF-03758309] | > 30 µM (inactive) | > 30 µM (inactive) | > 30 µM (inactive) | > 30 µM (inactive) | > 30 µM (inactive) | > 30 µM (inactive) | > 30 µM (inactive) | 5.56 µM (active) |
| Cc1cnc(NC(=O)Nc2cc(Br)c(C)cc2OC[C@@H]2CNCCO2)cn1 [RABUSERTIB] | > 30 µM (inactive) | > 30 µM (inactive) | > 30 µM (inactive) | > 30 µM (inactive) | > 30 µM (inactive) | > 30 µM (inactive) | > 30 µM (inactive) | > 30 µM (inactive) |
| CO[C@H]1C[C@@H]2CC[C@@H](C)[C@@](O)(O2)C(=O)C(=O)N2CCCC[C@H]2C(=O)O[C@H]([C@H](C)C[C@@H]2CC[C@@H](OP(C)(C)=O)[C@H](OC)C2)CC(=O)[C@H](C)/C=C(\C)[C@@H](O)[C@@H](OC)C(=O)[C@H](C)C[C@H](C)/C=C/C=C/C=C/1C [RIDAFOROLIMUS] | > 30 µM (inactive) | > 30 µM (inactive) | > 30 µM (inactive) | > 30 µM (inactive) | > 30 µM (inactive) | > 30 µM (inactive) | > 30 µM (inactive) | > 30 µM (inactive) |
| N#CC1(c2ccc(NC(=O)c3cccnc3NCc3ccncc3)cc2)CCCC1 [RIVOCERANIB] | > 30 µM (inactive) | > 30 µM (inactive) | > 30 µM (inactive) | > 30 µM (inactive) | > 30 µM (inactive) | > 30 µM (inactive) | > 30 µM (inactive) | > 30 µM (inactive) |
| O=c1[nH]ccc2cc(OC3CCNCC3)ccc12 [SAR-407899 FREE BASE] | > 30 µM (inactive) | > 30 µM (inactive) | > 30 µM (inactive) | > 30 µM (inactive) | > 30 µM (inactive) | > 30 µM (inactive) | > 30 µM (inactive) | > 30 µM (inactive) |
| Cn1cc(-c2cnn3c(N)c(Br)c([C@@H]4CCCNC4)nc23)cn1 [SCH-900776] | > 30 µM (inactive) | > 30 µM (inactive) | > 30 µM (inactive) | 2.36 µM (active) | > 30 µM (inactive) | > 30 µM (inactive) | > 30 µM (inactive) | > 30 µM (inactive) |
| CO[C@H]1C[C@@H]2CC[C@@H](C)[C@@](O)(O2)C(=O)C(=O)N2CCCC[C@H]2C(=O)O[C@H]([C@H](C)C[C@@H]2CC[C@@H](O)[C@H](OC)C2)CC(=O)[C@H](C)/C=C(\C)[C@@H](O)[C@@H](OC)C(=O)[C@H](C)C[C@H](C)/C=C/C=C/C=C/1C [SIROLIMUS] | > 30 µM (inactive) | > 30 µM (inactive) | > 30 µM (inactive) | > 30 µM (inactive) | > 30 µM (inactive) | > 30 µM (inactive) | > 30 µM (inactive) | > 30 µM (inactive) |
| CCS(=O)(=O)c1cccc(-c2cc(C(=O)NC3CCN(C)CC3)c(C)c3[nH]c4ncc(C)cc4c23)c1 [TAK-901] | > 30 µM (inactive) | > 30 µM (inactive) | > 30 µM (inactive) | 3.95 µM (active) | 0.264 µM (active) | > 30 µM (inactive) | > 30 µM (inactive) | 0.022 µM (active) |
| CO[C@H]1C[C@@H]2CC[C@@H](C)[C@@](O)(O2)C(=O)C(=O)N2CCCC[C@H]2C(=O)O[C@H]([C@H](C)C[C@@H]2CC[C@@H](OC(=O)C(C)(CO)CO)[C@H](OC)C2)CC(=O)[C@H](C)/C=C(\C)[C@@H](O)[C@@H](OC)C(=O)[C@H](C)C[C@H](C)/C=C/C=C/C=C/1C [TEMSIROLIMUS] | > 30 µM (inactive) | > 30 µM (inactive) | > 30 µM (inactive) | > 30 µM (inactive) | > 30 µM (inactive) | > 30 µM (inactive) | > 30 µM (inactive) | > 30 µM (inactive) |
| COc1cc2c(Nc3ccc(Cl)c(Cl)c3F)ncnc2cc1OC[C@@H]1C[C@@H]2CN(C)C[C@@H]2C1 [TESEVATINIB] | > 30 µM (inactive) | > 30 µM (inactive) | > 30 µM (inactive) | > 30 µM (inactive) | > 30 µM (inactive) | > 30 µM (inactive) | > 30 µM (inactive) | 3.94 µM (active) |
| O=C(Cc1ccc(-c2ccc(OCCN3CCOCC3)cc2)cn1)NCc1ccccc1 [TIRBANIBULIN] | > 30 µM (inactive) | > 30 µM (inactive) | > 30 µM (inactive) | > 30 µM (inactive) | > 30 µM (inactive) | > 30 µM (inactive) | > 30 µM (inactive) | > 30 µM (inactive) |
| O=C1NC(=O)[C@@H](c2cn3c4c(cccc24)CCC3)[C@@H]1c1c[nH]c2ccccc12 [TIVANTINIB] | > 30 µM (inactive) | > 30 µM (inactive) | > 30 µM (inactive) | > 30 µM (inactive) | > 30 µM (inactive) | > 30 µM (inactive) | > 30 µM (inactive) | > 30 µM (inactive) |
